Columns and labels:
[1] = test system: PANMI (wild proso millet); experiment: Pre-emergence herbicidal activity, warm season; type: in vivo, Panicum miliaceum; conditions: GR80 = lowest tested rate (300, 100, 30, 10 g/ha) with 80% or greater inhibition; approx. 14 days after treating; 30/21° C.
In short: (§1)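 Under 18/13 °C (ALOMY, POLCO) or 30/21 °C (PANMI, DIGSA) day/night, pre-emergence soil-surface treatments at 300, 100, 30 and 10 g/ha were evaluated after roughly 14 days. GR80 reflects percent inhibition relative to untreated plants.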

[2] = test system: ECHCG (barnyardgrass); experiment: Pre-emergence herbicidal activity, warm season; type: in vivo, Echinochloa crus-galli; conditions: GR80 = lowest tested rate (300, 100, 30, 10 g/ha) with 80% or greater inhibition; approx. 14 days after treating; 30/21° C.
In short: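 Activity is expressed as the rate giving 80% inhibition, with 300, 100, 30 and 10 g/ha typically tested. An asterisk marks activity short of 80% at the top rate. Warm-season grasses were held at 30/21 °C; cool-season blackgrass and wild buckwheat at 18/13 °C; scoring at about 14 days.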

[3] = test system: STEME (common chickweed); experiment: Pre-plant incorporated (PPI) herbicidal activity, cool season; type: in vivo, Stellaria media; conditions: for PPI activity GR80, STEME: pre-plant incorporated, lowest tested rate with 80% or greater inhibition, about 14 days; for Percent inhibition STEME: weed, PPI application
Protocol: (§2) In another set of tests, the pre-plant incorporated (PPI) activity of compounds of this invention was evaluated on the same species as for the pre-emergence tests described above. In the PPI tests the following procedure, designed to simulate PPI application, was used.
(§3) A pre-prepared topsoil mixture (described above) was placed in a pot and compacted to a depth of 1.0 to 1.25 cm from the top of the pot. Seeds of each of several monocotyledonous and dicotyledonous annual plant species were placed on top of the soil. A sufficient quantity of soil to cover the seeds and level fill the pot was weighed into an open container. A known amount of the test compound was dissolved or suspended in an organic solvent and applied by spraying to this cover soil. The cover soil was thoroughly mixed to distribute the test compound throughout the cover soil, and was then applied as a cover layer over the seeds. Untreated soil was used as a cover layer for control pots. After treatment the plants were placed in a greenhouse where they received 0.64 cm of overhead irrigation. All subsequent watering consisted of a light overhead mist and/or subirrigation as needed for germination and growth. Tables 9 and 10 below relate to warm season plant species which were placed after pre-emergence treatment in a greenhouse with a 30/21° C. day/night temperature regime. Tables 11 and 12 below relates to cool season plant species placed after pre-emergence treatment in a greenhouse or growth chamber with an 18/13° C. day/night temperature regime. Only the compounds of Examples 1, 6, 8, 11, 13 and 15-20 were included in PPI tests.
(§4) Approximately 14 days after planting and treating, the plants were observed and herbicidal efficacy recorded as percent inhibition by comparison with untreated plants.

[4] = test system: DIGSA (large crabgrass); experiment: Pre-emergence herbicidal activity, warm season; type: in vivo, Digitaria sanguinalis; conditions: GR80 = lowest tested rate (300, 100, 30, 10 g/ha) with 80% or greater inhibition; approx. 14 days after treating; 30/21° C.
In short: as §1

[5] = test system: SETVI (green foxtail); experiment: Pre-emergence herbicidal activity, cool season; type: in vivo, Setaria viridis; conditions: GR80 = lowest tested rate (300, 100, 30, 10 g/ha) with 80% or greater inhibition; approx. 14 days after treating; 18/13° C.
In short: (§5)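 GR80 values derive from percent inhibition relative to untreated plants, read roughly 14 days after sowing and pre-emergence soil-surface treatment (compound in 50:50 acetone/water; rates typically 10, 30, 100, 300 g/ha). Warm-season weeds grew at 30/21° C day/night, cool-season ones at 18/13° C; an asterisk marks activity without reaching 80% at the highest rate.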

[6] = test system: AGSST (creeping bentgrass); experiment: Post-emergence herbicidal activity, cool season; type: in vivo, Agrostis stolonifera; conditions: abraded plants sprayed at 300, 100, 30 and 10 g/ha; about 14 days after treatment
In short: (§6)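 GR80 values derive from percent growth inhibition scored approximately 14 days post-spray against abraded, unsprayed controls under an 18/13 °C regime. Foliar application to sandblast-abraded plants used rates of 300, 100, 30 and 10 g/ha in 50:50 acetone/water at 3,100 l/ha.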

[7] = test system: SETVI (green foxtail); experiment: Post-emergence herbicidal activity, cool season; type: in vivo, Setaria viridis; conditions: abraded plants sprayed at 300, 100, 30 and 10 g/ha; about 14 days after treatment
In short: as §6

[8] = test system: POLCO (wild buckwheat); experiment: Pre-plant incorporated (PPI) herbicidal activity, cool season; type: in vivo, Polygonum convolvulus; conditions: for PPI activity GR80, POLCO: pre-plant incorporated, lowest tested rate with 80% or greater inhibition, about 14 days; for Percent inhibition POLCO: weed, PPI application
Protocol: as §2, §3, §4

[9] = test system: GALAP (catchweed bedstraw); experiment: Pre-emergence herbicidal activity, cool season; type: in vivo, Galium aparine; conditions: lowest tested rate with 80% or greater inhibition; rates 300, 100, 30, 10 g/ha; about 14 days
In short: as §5

SMILES: C=C(Br)CC(F)(F)S(=O)(=O)c1ncn(C(=O)N(CC)CC)n1 [Example 19]
- Pre-emergence activity (GR80) PANMI [1]: 100 g/ha
- Pre-emergence activity (GR80) ECHCG [2]: 300 g/ha
- PPI activity GR80, STEME [3]: 100 g/ha
- Pre-emergence activity (GR80) DIGSA [4]: 100 g/ha
- Pre-emergence activity (GR80) SETVI [5]: 100 g/ha
- Post-emergence activity GR80, AGSST [6]: [empty]
- Post-emergence activity GR80, SETVI [7]: [empty]
- PPI activity GR80, POLCO [8]: * (activity observed, at least at highest rate, but <80% inhibition)
- Pre-emergence activity GR80, GALAP [9]: 300 g/ha

SMILES: C=C(CC(F)(F)S(=O)(=O)c1ncn(C(=O)N(CC)CC)n1)C[Si](C)(C)C [Example 20]
- Pre-emergence activity (GR80) PANMI [1]: 100 g/ha
- Pre-emergence activity (GR80) ECHCG [2]: 300 g/ha
- PPI activity GR80, STEME [3]: * (activity observed, at least at highest rate, but <80% inhibition)
- Pre-emergence activity (GR80) DIGSA [4]: 100 g/ha
- Pre-emergence activity (GR80) SETVI [5]: 100 g/ha
- Post-emergence activity GR80, AGSST [6]: [empty]
- Post-emergence activity GR80, SETVI [7]: [empty]
- PPI activity GR80, POLCO [8]: * (activity observed, at least at highest rate, but <80% inhibition)
- Pre-emergence activity GR80, GALAP [9]: [empty]

SMILES: CCN(CC)C(=O)n1cnc(S(=O)(=O)C(F)(F)SCc2ccccc2)n1 [Example 10]
- Pre-emergence activity (GR80) PANMI [1]: 300 g/ha
- Pre-emergence activity (GR80) ECHCG [2]: 300 g/ha
- Percent inhibition STEME ([3]; 10 g/ha): 0%
- Percent inhibition STEME ([3]; 30 g/ha): 0%
- Percent inhibition STEME ([3]; 100 g/ha): 0%
- Percent inhibition STEME ([3]; 300 g/ha): 0%
- Percent inhibition STEME ([3]; 900 g/ha): 90%
- Pre-emergence activity (GR80) DIGSA [4]: 100 g/ha
- Pre-emergence activity (GR80) SETVI [5]: 300 g/ha
- Post-emergence activity GR80, AGSST [6]: [empty]
- Post-emergence activity GR80, SETVI [7]: [empty]
- Percent inhibition POLCO ([8]; 10 g/ha): 0%
- Percent inhibition POLCO ([8]; 30 g/ha): 0%
- Percent inhibition POLCO ([8]; 100 g/ha): 60%
- Percent inhibition POLCO ([8]; 300 g/ha): 80%
- Percent inhibition POLCO ([8]; 900 g/ha): 95%
- Pre-emergence activity GR80, GALAP [9]: [empty]

SMILES: CCN(CC)C(=O)n1cnc(S(=O)(=O)C(F)(F)SC)n1 [Example 9]
- Pre-emergence activity (GR80) PANMI [1]: 100 g/ha
- Pre-emergence activity (GR80) ECHCG [2]: 300 g/ha
- Percent inhibition STEME ([3]; 30 g/ha): 70%
- Percent inhibition STEME ([3]; 100 g/ha): 95%
- Percent inhibition STEME ([3]; 300 g/ha): 100%
- Percent inhibition STEME ([3]; 900 g/ha): 100%
- Pre-emergence activity (GR80) DIGSA [4]: 100 g/ha
- Pre-emergence activity (GR80) SETVI [5]: 100 g/ha
- Post-emergence activity GR80, AGSST [6]: [empty]
- Post-emergence activity GR80, SETVI [7]: [empty]
- Percent inhibition POLCO ([8]; 30 g/ha): 0%
- Percent inhibition POLCO ([8]; 100 g/ha): 0%
- Percent inhibition POLCO ([8]; 300 g/ha): 95%
- Percent inhibition POLCO ([8]; 900 g/ha): 100%
- Pre-emergence activity GR80, GALAP [9]: [empty]

SMILES: C=CCC(F)(F)S(=O)(=O)c1ncn(C(=O)N(CC)CC)n1 [Example 17, 1-(N,N-diethylcarbamoyl)-3-[(1,1-difluoro-3-butenyl)sulfonyl]-1,2,4-triazole]
- Pre-emergence activity (GR80) PANMI [1]: 100 g/ha
- Pre-emergence activity (GR80) ECHCG [2]: 100 g/ha
- PPI activity GR80, STEME [3]: 10 g/ha
- Pre-emergence activity (GR80) DIGSA [4]: 100 g/ha
- Pre-emergence activity (GR80) SETVI [5]: 100 g/ha
- Post-emergence activity GR80, AGSST [6]: 300 g/ha
- Post-emergence activity GR80, SETVI [7]: [empty]
- PPI activity GR80, POLCO [8]: 100 g/ha
- Pre-emergence activity GR80, GALAP [9]: 100 g/ha

From patent US6461997B1, “Triazole sulfones having herbicidal activity” (Monsanto Technology LLC, priority 1999, dated 2002)
